Reference: patent EP4603105A1, “PHARMACEUTICAL COMPOSITION CONTAINING CYCLIC COMPOUND HAVING SELECTIVE KRAS INHIBITORY EFFECT AGAINST HRAS AND NRAS” (CHUGAI SEIYAKU KABUSHIKI KAISHA, priority 2022, dated 2024)
pIC50, pKd: −log10 of the molar value. Where a SMILES comes first, the peptide text is derived from it. Bridges are numbered along the chain shown (N, C = ends). [ ]: non-standard residue; d: D form. The star is where a group is joined. hPhe(3-Cl-4-CF3) = N[C@@H](CCc1ccc(C(F)(F)F)c(Cl)c1)C(=O)O; NPrPhe(4-Me) = CCCN[C@@H](Cc1ccc(C)cc1)C(=O)O; NMeGly(cPent) = CN[C@H](C(=O)O)C1CCCC1; NMeD = CN[C@@H](CC(=O)O)C(=O)O; NMeL = CN[C@@H](CC(C)C)C(=O)O; Pip = O=C(O)[C@@H]1CCCCN1; Morpholide = C1CN(*)CCO1; Ac5c = NC1(C(=O)O)CCCC1; Aze = O=C(O)[C@@H]1CCN1; Sar = CNCC(=O)O

Columns and labels:
[1] = biological target: GDP-bound KRAS wild-type protein (Homo sapiens, UniProt P01116); test: Binding to KRAS by surface plasmon resonance (SPR), dissociation constant KD
Procedure, shortened: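 Measured at 30°C: SPR with GDP-loaded, E. coli-expressed biotin-Avi RAS captured (~100–300 RU), ascending 75 s compound injections, HBS pH 7.4 with GDP, MgCl2, 4% DMSO. KD from 1:1 fit.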

[2] = biological target: GDP-bound NRAS wild-type protein (Homo sapiens, UniProt P01111); test: Binding to NRAS by surface plasmon resonance (SPR), KD and KD ratio to KRAS
Procedure, shortened: (§1)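 Single-cycle kinetics on GDP-loaded biotin-Avi RAS captured to ~100–300 RU; 75 s ascending injections, 100 µL/min, 30°C. HBS pH 7.4 + 10 mM MgCl2/10 µM GDP/4% DMSO. 1:1 fit, KD.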

[3] = biological target: HRAS wild-type protein (Homo sapiens, UniProt P01112); test: Binding to HRAS by surface plasmon resonance (SPR), KD and KD ratio to KRAS
Procedure, shortened: as §1

[4] = tested on: human lung cancer strain NCI-H441; assay type: cell-based
Procedure, shortened: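 Proliferation was scored by […] measured after the reagent was added to cultures kept at 37°C in 5% carbon dioxide.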

[5] = ratio of KD for GDP-bound NRAS wild-type protein to KD for KRAS
[6] = ratio of KD for HRAS wild-type protein to KD for KRAS
[7] = Single Cycle Kinetics, 1:1 binding model
[8] = ratio of the KD value with respect to GDP-bound NRAS wild-type protein to the KD value with respect to KRAS
[9] = ratio of the KD value with respect to HRAS wild-type protein to the KD value with respect to KRAS
[10] = ratio of KD value for GDP-bound NRAS wild-type protein to KD value for KRAS (SPR)
[11] = ratio of KD value for HRAS wild-type protein to KD value for KRAS (SPR)

Sequence of GDP-bound NRAS wild-type protein (P01111 whole entry): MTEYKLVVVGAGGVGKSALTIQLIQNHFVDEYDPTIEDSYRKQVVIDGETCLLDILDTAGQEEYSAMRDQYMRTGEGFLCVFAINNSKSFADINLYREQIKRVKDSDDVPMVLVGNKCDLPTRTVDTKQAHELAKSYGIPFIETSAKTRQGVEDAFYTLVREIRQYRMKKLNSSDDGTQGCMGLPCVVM
Sequence of GDP-bound KRAS wild-type protein (P01116 1-188 isoform P01116-2): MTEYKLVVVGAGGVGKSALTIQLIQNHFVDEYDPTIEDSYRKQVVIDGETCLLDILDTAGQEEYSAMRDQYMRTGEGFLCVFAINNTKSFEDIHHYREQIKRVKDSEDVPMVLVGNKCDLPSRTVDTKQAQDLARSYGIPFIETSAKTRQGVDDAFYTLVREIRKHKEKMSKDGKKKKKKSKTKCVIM
Sequence of HRAS wild-type protein (P01112 whole entry): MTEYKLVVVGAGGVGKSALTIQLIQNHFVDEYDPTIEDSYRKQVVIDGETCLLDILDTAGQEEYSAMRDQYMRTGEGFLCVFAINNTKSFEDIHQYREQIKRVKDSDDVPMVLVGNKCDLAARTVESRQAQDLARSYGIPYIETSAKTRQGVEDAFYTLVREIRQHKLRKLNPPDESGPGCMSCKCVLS

SMILES	pKd ([1]; 1:1 binding model)	NRAS /KRAS [2, 5]	HRAS /KRAS [3, 6]	pIC50 [4]	pKd [1, 7]	NRAS /KRAS [2, 8]	HRAS /KRAS [3, 9]	NRAS /KRAS [2, 10]	HRAS /KRAS [3, 11]	pKd ([1]; Single Cycle Kinetics)
CCO[C@@H]1C[C@H]2C(=O)NC3(CC(C)(C)C3)C(=O)N(C)[C@@H](C3CCCC3)C(=O)N(C)[C@H](C(=O)N(C)CC)CC(=O)N(C)[C@@H](CC(C)C)C(=O)N[C@@H]([C@@H](C)CC)C(=O)N(C)CC(=O)N(C)[C@H]3C/C=C\CCN(C3=O)[C@@H](Cc3ccc(C(F)F)cc3)C(=O)N(C)CC(=O)N[C@@H](CCc3cc(C)c(C(F)F)c(C)c3)C(=O)N2C1 [PP3144]	8.37	A (a compound having 10 or more and less than 20 is denoted as A)	A (a compound having 10 or more and less than 20 is denoted as A)	7.14						
CCCN1C(=O)[C@@H]2CCN2C(=O)[C@@H]2CCCCN2C(=O)[C@H]([C@@H](C)CC)NC(=O)[C@H](CC(C)C)N(C)C(=O)C[C@@H](C(=O)N2CCOCC2)N(C)C(=O)[C@H](C2CCCC2)N(C)C(=O)C2(CCCC2)NC(=O)[C@@H]2CCCN2C(=O)[C@H](CCc2ccc(C(F)(F)F)c(Cl)c2)NC(=O)CN(C)C(=O)[C@@H]1Cc1ccc(C)cc1 [PP0070] ([NMeL]I[Pip][Aze][NPrPhe(4-Me)][Sar][hPhe(3-Cl-4-CF3)]P[Ac5c][NMeGly(cPent)][NMeD]-Morpholide; lactam N-11)	9.80	C (A compound having a KD ratio of 0.1 or more and less than 3 is denoted as C)	B (a compound having 3 or more and less than 10 is denoted as B)	8.68						
CC[C@H](C)[C@@H]1NC(=O)[C@H](CC(C)C)N(C)C(=O)C[C@@H](C(=O)N2CCOCC2)N(C)C(=O)[C@H](C2CCCC2)N(C)C(=O)C2(CCCC2)NC(=O)[C@@H]2CCCN2C(=O)[C@H](CCc2ccc(C(F)(F)F)c(Cl)c2)NC(=O)CN(C)C(=O)[C@H](Cc2ccc(Cl)cc2)N2CCCC[C@@H](C2=O)N(C)C(=O)CN(C)C1=O [PP0532]				8.16	10.18	C (A compound having a KD ratio of 0.1 or more and less than 3 is denoted as C)	B (a compound having 3 or more and less than 10 is denoted as B)			
CCC[C@H]1C(=O)N[C@@H](C2CCOCC2)C(=O)N(C)CC(=O)N(C)[C@H]2C/C=C\CCN(C2=O)[C@@H](Cc2ccc(C)cc2)C(=O)N(C)CC(=O)N[C@@H](CCc2ccc(C(F)(F)F)c(Cl)c2)C(=O)N2C[C@H](OCC)C[C@H]2C(=O)NC2(CC(C)(C)C2)C(=O)N(C)[C@@H](C2CCCC2)C(=O)N(C)[C@H](C(=O)N(C)C)CC(=O)N1C [PP3002]	8.68	A (a compound having 10 or more and less than 20 is denoted as A)	A (a compound having 10 or more and less than 20 is denoted as A)	6.89						
CC[C@H](C)[C@@H]1NC(=O)[C@H](CC2CC2)N(C)C(=O)C[C@@H](C(=O)N(C)C)N(C)C(=O)[C@H](C2CCCC2)N(C)C(=O)C2(CCC2)N(C)C(=O)[C@@H]2C[C@@H](C)CN2C(=O)[C@H](CCc2cc(F)c(C(F)(F)F)c(F)c2)NC(=O)CN(C)C(=O)[C@H](Cc2ccc(C)cc2)N2CC/C=C\C[C@@H](C2=O)N(C)C(=O)CN(C)C1=O [PP1800]				8.19	10.29			A (a compound having 10 or more and less than 20 is denoted as A)	A (a compound having 10 or more and less than 20 is denoted as A)	
CC[C@H](C)[C@@H]1NC(=O)[C@H](CC(C)C)N(C)C(=O)C[C@@H](C(=O)N2CCOCC2)N(C)C(=O)[C@H](C2CCCC2)N(C)C(=O)C2(CCCC2)NC(=O)[C@@H]2CCCN2C(=O)[C@H](CCc2ccc(C(F)(F)F)c(Cl)c2)NC(=O)CN(C)C(=O)[C@H](Cc2ccccc2)N2CCCC[C@@H](C2=O)N(C)C(=O)CN(C)C1=O [PP0529]				8.19	10.02	C (A compound having a KD ratio of 0.1 or more and less than 3 is denoted as C)	B (a compound having 3 or more and less than 10 is denoted as B)			
CC[C@H](C)[C@@H]1NC(=O)[C@H](CC2CC2)N(C)C(=O)C[C@@H](C(=O)N(C)C)N(C)C(=O)[C@H](C2CCCC2)N(C)C(=O)C2(CC(C)(C)C2)NC(=O)[C@@H]2C[C@@H](C)CN2C(=O)[C@H](CCc2ccc(C(F)(F)F)c(OC)c2)NC(=O)CN(C)C(=O)[C@H](Cc2ccc(C)cc2)N2CC/C=C\C[C@@H](C2=O)N(C)C(=O)CN(C)C1=O [PP1901]				8.12	10.01	A (a compound having 10 or more and less than 20 is denoted as A)	B (a compound having 3 or more and less than 10 is denoted as B)			
CCC[C@H]1C(=O)N[C@@H]([C@@H](C)CC)C(=O)N(C)CC(=O)N(C)[C@H]2C/C=C\CCN(C2=O)[C@@H](Cc2ccc(C)cc2)C(=O)N(C)CC(=O)N[C@@H](CCc2ccc(C(F)(F)F)c(OC)c2)C(=O)N2C[C@H](OCC)C[C@H]2C(=O)NC2(CC(C)(C)C2)C(=O)N(C)[C@@H](CC(C)C)C(=O)N(C)[C@H](C(=O)N(C)C)CC(=O)N1C [PP3008]	9.42	A (a compound having 10 or more and less than 20 is denoted as A)	A (a compound having 10 or more and less than 20 is denoted as A)	7.80						
CCO[C@@H]1C[C@H]2C(=O)NC3(CCC3)C(=O)N(C)[C@@H](C(CC)CC)C(=O)N(C)[C@H](C(=O)N3CCOCC3)CC(=O)N(C)[C@@H](CC3CC3)C(=O)N[C@@H]([C@@H](C)CC)C(=O)N(C)CC(=O)N(C)[C@H]3C/C=C\CCN(C3=O)[C@@H](Cc3ccc(F)cc3)C(=O)N(C)CC(=O)N[C@@H](CCc3cc(F)c(C(F)(F)F)c(F)c3)C(=O)N2C1 [PP1527]				6.84	9.02			A (a compound having 10 or more and less than 20 is denoted as A)	A (a compound having 10 or more and less than 20 is denoted as A)	
CCO[C@@H]1C[C@H]2C(=O)NC3(CCC3)C(=O)N(C)[C@@H](C3CCCC3)C(=O)N(C)[C@H](C(=O)N(C)C)CC(=O)N(C)[C@@H](CC(C)C)C(=O)N[C@@H]([C@@H](C)CC)C(=O)N(C)CC(=O)N(C)[C@H]3C[C@@H](C)CCN(C3=O)[C@@H](Cc3ccc(C(F)(F)F)cc3)C(=O)N(C)CC(=O)N[C@@H](CCc3cc(F)c(C(F)(F)F)c(F)c3)C(=O)N2C1 [PP1018]		C (A compound having a KD ratio of 0.1 or more and less than 3 is denoted as C)	B (a compound having 3 or more and less than 10 is denoted as B)	8.17						10.77
CCO[C@@H]1C[C@H]2C(=O)NC3(CCC3)C(=O)N(C)[C@@H](C3CCCC3)C(=O)N(C)[C@H](C(=O)N3CCOCC3)CC(=O)N(C)[C@@H](CC3CCC3)C(=O)N[C@@H]([C@@H](C)CC)C(=O)N(C)CC(=O)N(C)[C@H]3CCCCCN(C3=O)[C@@H](Cc3ccc(C(F)(F)F)cc3)C(=O)N(C)CC(=O)N[C@@H](CCc3cc(F)c(C(F)(F)F)c(F)c3)C(=O)N2C1 [PP0683]				7.35	9.21	B (a compound having 3 or more and less than 10 is denoted as B)	B (a compound having 3 or more and less than 10 is denoted as B)			
CC[C@H](C)[C@@H]1NC(=O)[C@H](CC(C)C)N(C)C(=O)C[C@@H](C(=O)N2CCOCC2)N(C)C(=O)[C@H](C2CCCC2)N(C)C(=O)C2(CCCC2)NC(=O)[C@@H]2CCCN2C(=O)[C@H](CCc2ccc(C(F)(F)F)c(Cl)c2)NC(=O)CN(C)C(=O)[C@H](Cc2ccccc2)N2CC=CC[C@@H](C2=O)N(C)C(=O)CN(C)C1=O [PP0528]				7.66	9.43	C (A compound having a KD ratio of 0.1 or more and less than 3 is denoted as C)	C (A compound having a KD ratio of 0.1 or more and less than 3 is denoted as C)			
C=CCCCCN(C)C(=O)[C@@H]1CC(=O)N(C)[C@@H](CC2CC2)C(=O)N[C@@H](CC=C)C(=O)N(C)CC(=O)N(C)[C@H]2C/C=C\CCN(C2=O)[C@@H](Cc2ccc(C(F)(F)F)cc2)C(=O)N(C)CC(=O)N[C@@H](CCc2cc(F)c(C(F)(F)F)c(F)c2)C(=O)N2C[C@H](OCC)C[C@H]2C(=O)NC2(CCC2)C(=O)N(C)[C@@H](C2CCCC2)C(=O)N1C [PP1554]				6.92	8.57			A (a compound having 10 or more and less than 20 is denoted as A)	A (a compound having 10 or more and less than 20 is denoted as A)	
CCCOC[C@H]1C(=O)N[C@@H]([C@@H](C)CC)C(=O)N(C)CC(=O)N(C)[C@H]2C/C=C\CCN(C2=O)[C@@H](Cc2ccc(C)cc2)C(=O)N(C)CC(=O)N[C@@H](CCc2cc(F)c(C(F)(F)F)c(F)c2)C(=O)N2C[C@H](OCC)C[C@H]2C(=O)NC2(CC(C)(C)C2)C(=O)N(C)[C@@H](C2CCCC2)C(=O)N(C)[C@H](C(=O)N(C)CC)CC(=O)N1C [PP1577]				8.17	9.77			B (a compound having 3 or more and less than 10 is denoted as B)	B (a compound having 3 or more and less than 10 is denoted as B)	
CCOC[C@H]1C(=O)N[C@@H]([C@@H](C)CC)C(=O)N(C2CC2)CC(=O)N(C)[C@H]2C/C=C\CCN(C2=O)[C@@H](CC2CCCCC2)C(=O)N(C)CC(=O)N[C@@H](CCc2ccc(C(F)(F)F)c(OC)c2)C(=O)N2C[C@H](OCC)C[C@H]2C(=O)N(C)C2(CCC2)C(=O)N(C)[C@@H](C2CCCC2)C(=O)N(C)[C@H](C(=O)N(C)C)CC(=O)N1C [PP2342]				7.15	9.26	A (a compound having 10 or more and less than 20 is denoted as A)	A (a compound having 10 or more and less than 20 is denoted as A)			
